In EP0461264A1, “ETHYNYLPHENYL DERIVATIVE, PRODUCTION THEREOF, AND REMEDY FOR DISEASES OF CIRCULATORY ORGANS CONTAINING THE SAME AS ACTIVE INGREDIENT” (KAKEN PHARMACEUTICAL CO., LTD., priority 1989, dated 1991):
Counter-ions that a name gives are not always drawn. Like-named read-outs stand apart in the source and are kept apart here.

Legend:
[1] = test system: spontaneously hypertensive rats; test: Activity against blood pressure (Test Example 1-1), tail-cuff measurement after oral administration; format: in vivo; details: Rattus norvegicus
Experimental: Male spontaneously hypertensive rats (20 to 30 weeks) were employed. After being heated in a heating box at 45 ° C for about 5 minutes, the rats were put in holders for measuring blood pressure, and blood pressure cuffs were set on the rats. After the rat's heart rate was stabilized, blood pressure of each rat was measured by a sphygmomanometer for rat (8002e, made by W + W Co., Ltd.) before the administration, and one hour, three hours and six hours after the administration. Each test compound dissolved in a 0.5 % solution of methyl cellulose was administered orally in a volume of 5 mℓ/kg.
Change of the blood pressure was calculated by the following formula.
(§1) Change rate (%) = [(Measured value after administration - Measured value before administration)/Measured value before administration] x 100

[2] = test system: convulsion caused by pentylenetetrazole; test: Activity against convulsion caused by pentylenetetrazole (Test Example 6); format: in vivo, Slc: ddy male mice; details: summary of Table 4
Experimental: Slc: ddy male mice weighing 24 to 32 g (5 weeks) were bred under an environment of 22° to 24° C room temperature and 60 % humidity for 1 week, and then the bred mice were subjected to a test. The test was carried out as the following procedure. One hour after the oral administration of a test compound, 40 mg/kg of pentylenetetrazole was administered in a caudal vein. Appearance of tonic extensive convulsion was measured as an indication, and anticonvulsive activity was examined. Each test compound was suspended in a 0.5 % solution of methyl cellulose, which was used for a control group.

[3] = test system: left circumflex coronary artery and right vertebral artery blood flow; test: Activity against blood flow in anesthetized dogs (Test Example 4); format: in vivo, Beagle dogs; details: intravenous, compared with nicardipine or nimodipine, Figure 4
Experimental: Beagle dogs weighing 7 to 14 kg were employed, irrespective of sex. Dogs were anesthetized by intravenously administering 30 mg/kg of pentobarbital sodium (Nembutal). During the test […] of pentobarbital was injected continually into each dog. A endotracheal tube was inserted into each trachea. Incision was performed along the midline of the chest and a heart was exposed. Probes of a electromagnetic flowmeter (made by Nihon Koden Kohgyo Co., Ltd.) were set on a left circumflex coronary artery and a right vertebral artery. Each parameter was recorded simultaneously by polygragh (made by Nihon Koden Kogyo Co., Ltd.). […] Change of blood flow was calculated by the following Change rate.
as §1

[4] = test system: atrioventricular conduction system; details: rat, in vivo, iv
[5] = test system: model of vasopressin myocardial ischemia; test: Activity against a model of vasopressin myocardial ischemia (ST wave depression, Test Example 3); format: in vivo, Donryu strain male rats; details: intravenous, five minutes before vasopressin 0.3 µg/kg, compared with nicardipine or nifedipine, Figure 3
Experimental: In accordance with a method of Hiramatu et al. (Japanese Journal Pharmacology 20,313 to 324,1970), Donryu strain male rats weighing 142 to 265 g were employed. Rats were anesthetized by intraperitoneally administering 60 mg/kg of pentobarbital sodium. After intravenous administration of 0.3 µg/kg of vasopressin, electrocardiogram (lead II) was recorded every one minute for five minutes. The maximum depression of ST wave in electrocardiogram was measured as an indication of myocardial ischemia. Five minutes before the administration of vasoperessin, each test compound dissolved in a mixted solution containing 20 % of propylen glycol and 5 % of glucose, was administered intravenously in a dose of 1 mt/kg.

[6] = Acute toxicity (Test Example 7); details: rat, in vivo; oral administration, death rate after 7 days; read-out: Rat LDso
Experimental: In each group 5 Slc: Wistar male rats weighing 100 g to 114 g (4 weeks) were employed. The compound No. 1 was administered orally thereto and with death rate after 7 days a value of acute toxicity was measured.
Rat LDso = 300 to 1000 mg/kg (oral administration)

angiotensin II = test: Inhibitory activity against angiotensin II, constriction response of ileum preparations (Test Example 5); format: cell-based, Hartrey male guinea pigs
Experimental: From Hartrey male guinea pigs weighing about 500 g, ileum preparations were prepared. […] Thereinto 3 x 10^-8M of angiotensin II was added and constriction response of each preparation was measured through a isometoric transducer (made by Nihon Koden Kogyo Co., Ltd.). Before the addition of angiotensin II, a compound of the present invention or saralasin was previously added into a Magnus trough. Contractive responses in both cases were compared and Inhibition rate was calculated by the following formula.
Angiotensin II Inhibition rate = (1 - Tension in case of adding test compound/Tension of control) x 100

[7] = test system: Spontaneous hypertensive male rats; test: Duration of blood pressure reduction activity (Test Example 1-2), direct aortic pressure without anesthesia; format: in vivo; details: oral, 3 mg/kg or 10 mg/kg, Figure 1
Experimental: Spontaneous hypertensive male rats (35 weeks) were employed. Before the day the test was carried out, rats were anesthetized with ether, and then, a polyethylene tube was inserted into an aorta abdominalis of the each rat. The other end of the polyethylene tube was led out of the rat's body, and the led polyethylene tube was connected with a pressure transducer. Blood pressure of each rat was measured by a polygraph (RM-85, made by Nihon Koden Kohgyo Co., Ltd.) without anesthesia before the administration, at intervals of one hour for eight hours after the administration and 24 hours after the administration.
Each test compound disolved in a 0.5 % solution of methyl cellulose was administered orally in a volume of 5 m í/kg and in a dose of 3 mg/kg or 10 mg/kg.
As is clear from Figure 1, blood pressure reduction activity of the compound No. 1 lasted for at least eight hours.

[8] = 1 h, one hour after administration, read-out: Change rate of blood pressure 1 hr. value
[9] = 3 h, three hours after administration, read-out: Change rate of blood pressure 3 hr. value
[10] = 6 h, six hours after administration, read-out: Change rate of blood pressure 6 hr. value

C#Cc1cccc(C2C(C(=O)OC)=C(C)NC(C)=C2C(=O)OCCCN2CCN(c3ccccc3OC)CC2)c1 (stereo not shown) [compound 18, 4-(3-ethynylphenyl)-3-methoxycarbonyl-5-[3-(N-2-methoxyphenyl-piperazinyl)propoxycarbonyl]-2,6-dimethyl-1,4-dihydropyridine]
change in vivo at 10 mg/kg [1, 8]: -5.3%
change in vivo at 10 mg/kg [1, 9]: -12.4%
change in vivo at 10 mg/kg [1, 10]: -14.3%

O=C1NC(=O)C(c2ccccc2)(c2ccccc2)N1 [Diphenylhidantoin, reference compound]
anticonvulsive activity [2]: showing anticonvulsive activity

COCCOC(=O)C1=C(C)NC(C)=C(C(=O)OC(C)C)C1c1cccc([N+](=O)[O-])c1 (stereo not shown) [Nimodipine, isopropyl, 2-methoxyethyl 2,6-dimethyl-4-(3-nitrophenyl)-1,4-dihydropyridinedicarboxylate, reference compound]
change in vivo at 10 mg/kg [1, 8]: -11%
change in vivo at 10 mg/kg [1, 9]: -11%
change in vivo at 10 mg/kg [1, 10]: -10.2%

C#Cc1cccc(C2C(C(=O)OC)=C(C)NC(C)=C2C(=O)OCCN2CCN(C(c3ccc(F)cc3)c3ccc(F)cc3)CC2)c1 (stereo not shown) [compound 4, 4-(3-ethynylphenyl)-3-methoxycarbonyl-2,6-dimethyl-5-(N-di-4-fluorophenylmethylpiperazinylethoxycarbonyl)-1,4-dihydropyridine]
change in vivo at 10 mg/kg [1, 8]: -41.2%
change in vivo at 10 mg/kg [1, 9]: -40.9%
change in vivo at 10 mg/kg [1, 10]: -35.7%

C#Cc1cccc(F)c1C1C(C(=O)OC)=C(C)NC(C)=C1C(=O)OCCN1CCN(C(c2ccccc2)c2ccccc2)CC1 (stereo not shown) [compound 2, 4-(2-ethynyl-6-fluorophenyl)-3-methoxycarbonyl-2,6-dimethyl-5-(N-diphenylmethylpiperazinylethoxycarbonyl)-1,4-dihydropyridine]
change in vivo at 30 mg/kg [1, 8]: -25%
change in vivo at 30 mg/kg [1, 9]: -22.5%
change in vivo at 30 mg/kg [1, 10]: -10%

C#Cc1cccc(C2C(C(=O)OC)=C(C)NC(C)=C2C(=O)OC(C)CN2CCN(C(c3ccccc3)c3ccccc3)CC2)c1 (stereo not shown) [compound 37, 4-(3-ethynylphenyl)-3-methoxycarbonyl-2,6-dimethyl-5-[2-(N-diphenyl-methylpiperazinyl)-1-methylethoxycarbonyl]-1,4-dihydropyridine]
change in vivo at 30 mg/kg [1, 8]: -38.1%
change in vivo at 30 mg/kg [1, 9]: -44.7%
change in vivo at 30 mg/kg [1, 10]: -48.7%

C#Cc1cccc(C2C(C(=O)OC)=C(C)NC(C)=C2C(=O)OCCN2CCN(C(c3ccccc3)c3ccccc3)CC2)c1 (stereo not shown) [Compound No. 1, 4-(3-ethynylphenyl)-3-methoxycarbonyl-2,6-dimethyl-5-(N-diphenyl-methylpiperazinylethoxycarbonyl)-1,4-dihydropyridine]
anticonvulsive activity [2]: did not show the activity
activity for increasing coronary blood flow [3]: greater activity
activity for increasing vertebral blood flow [3]: greater activity
influence on artrioventricular conduction system (change rate of PQ interval) [4]: less influence on artrioventricular conduction system as compared with nicardipine
antimyocardial ischemia activity (maximum depression of ST wave) [5]: greater antimyocardial ischemia activity than that of nicardipine or nifedipine
LD50 at 168 h [6]: 300 to 1000 mg/kg
change in vivo at 10 mg/kg [1, 8]: -39%
change in vivo at 10 mg/kg [1, 9]: -45.2%
change in vivo at 10 mg/kg [1, 10]: -43.3%
inhibition at 1 µM (angiotensin II; Cavia porcellus, Concentration 10^-6 M, 3 x 10^-8M angiotensin II, read-out: Angiotensin II Inhibition rate (%)): 71.1%
inhibition at 0.1 µM (angiotensin II; Cavia porcellus, Concentration 10^-7 M, 3 x 10^-8M angiotensin II, read-out: Angiotensin II Inhibition rate (%)): 56.2%
inhibition at 0.01 µM (angiotensin II; Cavia porcellus, Concentration 10^-8 M, 3 x 10^-8M angiotensin II, read-out: Angiotensin II Inhibition rate (%)): 6.5%
Inhibitory activity against angiotension II (angiotensin II; compared with saralasin, positive control drug): the same extent of Inhibitory activity against angiotension II as that of saralasin
Duration of blood pressure reduction activity [7]: at least eight

C#Cc1cccc(C2C(C(=O)OCCN3CCN(C(c4ccccc4)c4ccccc4)CC3)=C(C)NC(N)=C2C(=O)OCC)c1 (stereo not shown) [compound 26, 4-(3-ethynylphenyl)-3-ethoxycarbonyl-2-amino-6-methyl-5-(N-diphenylmethylpiperazinylethoxycarbonyl)-1,4-dihydropyridine]
change in vivo at 30 mg/kg [1, 8]: -38.8%
change in vivo at 30 mg/kg [1, 9]: -43.8%
change in vivo at 30 mg/kg [1, 10]: -41.5%

Saralasin [reference compound]
Angiotensin II Inhibition rate (%) (angiotensin II; Concentration 10^-7 M, 3 x 10^-8M angiotensin II): 47.3%

C#Cc1cccc(C2C(C(=O)OC)=C(C)NC(C)=C2C(=O)OCCN2CCN(C(c3ccc(C)cc3)c3ccc(C)cc3)CC2)c1 (stereo not shown) [compound 5, 4-(3-ethynylphenyl)-3-methoxycarbonyl-2,6-dimethyl-5-(N-di-4-methyl-phenylmethylpiperazinylethoxycarbonyl)-1,4-dihydropyridine]
change in vivo at 10 mg/kg [1, 8]: -41.5%
change in vivo at 10 mg/kg [1, 9]: -41.5%
change in vivo at 10 mg/kg [1, 10]: -29.2%

COC(=O)C1=C(C)NC(C)=C(C(=O)OCCN(C)Cc2ccccc2)C1c1cccc([N+](=O)[O-])c1 (stereo not shown) [Nicardipine, 2-(N-benzyl-N-methylamino)ethyl, methyl 2,6-dimethyl-4-(3-nitrophenyl)-1,4-dihydropyridinedicarboxylate hydrochloride, reference compound]
change in vivo at 10 mg/kg [1, 8]: -35%
change in vivo at 10 mg/kg [1, 9]: -3.5%
change in vivo at 10 mg/kg [1, 10]: -2%
